# From patent US5616615A, “Enaminone esters” (priority 1995, dated 1997)
# Tested on: not listed separately
# Experiment: in vivo
# Settings: rat, po, 50 mg/kg
# Source text: (§1) This oral screen is designated as phase VI.
row,Compound,"Tox, animals toxic/tested"
1,COC(=O)C1C(=O)C=C(Nc2ccc(F)cc2)CC1C (centres unmarked) [Compound 112],0/4

# Tested on: Subcutaneous Pentylenetetrazol seizure
# Experiment: sc Met subcutaneous pentylenetetrazol (Metrazol) seizure test, mice
# Assay type: in vivo
# Settings: 100 mg/kg, 30 min
# Protocol: 2. sc Met--Subcutaneous Pentylenetetrazol (Metrazol^R) Seizure Test
# The animal is observed for 30 minutes. Failure to observe even a threshold seizure (a single episode of clonic spasms of at least 5 seconds duration) is defined as protection and the results are expressed as the number of animals protected/the number of animals tested.
row,Compound,"scMet, animals protected/tested"
1,O=C1C=C(NCc2ccccc2)CCC1 [Compound 153],0/1

# Same assay, conditions: 100 mg/kg, 4 h
row,Compound,"scMet, animals protected/tested"
1,O=C1C=C(NCc2ccccc2)CCC1 [Compound 153],0/1

# Same assay, conditions: 300 mg/kg, 30 min
row,Compound,"scMet, animals protected/tested"
1,O=C1C=C(NCc2ccccc2)CCC1 [Compound 153],0/1

# Same assay, conditions: 300 mg/kg, 4 h
row,Compound,"scMet, animals protected/tested"
1,O=C1C=C(NCc2ccccc2)CCC1 [Compound 153],0/1

# Same assay, conditions: Mus musculus, sc, 0.5 h, 30 mg/kg, 30 min, second trial; read-out: scMet, animals protected/tested
row,Compound,responders at 30 mg/kg [%]
1,COC(=O)C1C(=O)C=C(Nc2ccc(C)cc2)CC1C (centres unmarked) [Compound 28],0

# Same assay, conditions: Mus musculus, sc, 0.5 h, 30 mg/kg, 30 min; read-out: scMet, animals protected/tested
row,Compound,responders at 30 mg/kg [%]
1,COC(=O)C1C(=O)C=C(Nc2ccc(C)cc2)CC1C (centres unmarked) [Compound 28],100

# Same assay, conditions: Mus musculus, sc, 0.5 h, 100 mg/kg, 30 min; read-out: scMet, animals protected/tested (converted)
row,Compound,responders at 100 mg/kg [%]
1,COC(=O)C1C(=O)C=C(Nc2ccc(F)cc2)CC1C (centres unmarked) [Compound 112],0

# Same assay, conditions: Mus musculus, sc, 0.5 h, 300 mg/kg, 30 min; read-out: scMet, animals protected/tested (converted)
row,Compound,responders at 300 mg/kg [%]
1,COC(=O)C1C(=O)C=C(Nc2ccc(C)cc2)CC1C (centres unmarked) [Compound 28],0
2,COC(=O)C1C(=O)C=C(Nc2ccc(F)cc2)CC1C (centres unmarked) [Compound 112],0

# Same assay, conditions: Mus musculus, sc, 4 h, 30 mg/kg, 4 h; read-out: scMet, animals protected/tested
row,Compound,responders at 30 mg/kg [%]
1,COC(=O)C1C(=O)C=C(Nc2ccc(C)cc2)CC1C (centres unmarked) [Compound 28],0

# Same assay, conditions: Mus musculus, sc, 4 h, 100 mg/kg, 4 h; read-out: scMet, animals protected/tested (converted)
row,Compound,responders at 100 mg/kg [%]
1,COC(=O)C1C(=O)C=C(Nc2ccc(F)cc2)CC1C (centres unmarked) [Compound 112],0

# Same assay, conditions: Mus musculus, sc, 4 h, 300 mg/kg, 4 h; read-out: scMet, animals protected/tested (converted)
row,Compound,responders at 300 mg/kg [%]
1,COC(=O)C1C(=O)C=C(Nc2ccc(C)cc2)CC1C (centres unmarked) [Compound 28],0
2,COC(=O)C1C(=O)C=C(Nc2ccc(F)cc2)CC1C (centres unmarked) [Compound 112],0

# Same assay, conditions: Phase I
row,Compound,scMet evaluation
1,COC(=O)C1C(=O)C=C(Nc2ccc(C)cc2)CC1C (centres unmarked) [Compound 28],spurious results

# Tested on: seizures
# Experiment: Anticonvulsant evaluation (ASP phase I / overall)
# Assay type: in vivo, mice
# Settings: 27 vs 16, 28 vs 17, 29 vs 20
# Protocol: The first phase of the ADD Program involved performing tests on male Carworth Farms #1 mice. […] Three tests were performed:
# (§2) Maximal electroshock seizures are elicited with a 60-cycle alternating current of 50 mA intensity (5-7 times that necessary to elicit minimal electroshock seizures) delivered via corneal electrodes for 0.2 seconds. A drop of 0.9% saline is instilled in the eye prior to application of the electrodes in order to […].
# The animal is observed for 30 minutes.
row,Compound,activity compared with benzylamine counterpart
1,COC(=O)C1C(=O)C=C(Nc2ccc(C)cc2)CC1C (centres unmarked) [Compound 28],activity is enhanced in all cases

# Same assay, conditions: Mus musculus, ip; Phase I; read-out: ASP Classification
row,Compound,minimal effective dose [mg/kg]
1,COC(=O)C1C(=O)C=C(Nc2ccc(C)cc2)CC1C (centres unmarked) [Compound 28],< 100
2,COC(=O)C1C(=O)C=C(Nc2ccc(F)cc2)CC1C (centres unmarked) [Compound 112],< 100

# Same assay, conditions: mouse, in vivo
row,Compound,anticonvulsant activity
1,COC(=O)C1C(=O)C=C(Nc2ccc(C)cc2)CC1C (centres unmarked) [Compound 28],anticonvulsant activity was observed

# Tested on: Maximal electroshock seizures
# Experiment: Phase VI oral MES test, rats
# Assay type: in vivo
# Settings: Rattus norvegicus, 0.5 h; oral, 50 mg/kg, 0.50 h; read-out: MES, animals protected/tested (converted)
# Source text: as §2, §1
row,Compound,responders at 50 mg/kg [%]
1,COC(=O)C1C(=O)C=C(Nc2ccc(F)cc2)CC1C (centres unmarked) [Compound 112],100

# Same assay, conditions: Rattus norvegicus; oral, 50 mg/kg, 0.25 h; read-out: MES, animals protected/tested (converted)
row,Compound,responders at 50 mg/kg [%]
1,COC(=O)C1C(=O)C=C(Nc2ccc(F)cc2)CC1C (centres unmarked) [Compound 112],100

# Same assay, conditions: Rattus norvegicus; oral, 50 mg/kg, 1.00 h; read-out: MES, animals protected/tested (converted)
row,Compound,responders at 50 mg/kg [%]
1,COC(=O)C1C(=O)C=C(Nc2ccc(F)cc2)CC1C (centres unmarked) [Compound 112],100

# Same assay, conditions: Rattus norvegicus; oral, 50 mg/kg, 2.00 h; read-out: MES, animals protected/tested (converted)
row,Compound,responders at 50 mg/kg [%]
1,COC(=O)C1C(=O)C=C(Nc2ccc(F)cc2)CC1C (centres unmarked) [Compound 112],100

# Same assay, conditions: Rattus norvegicus; oral, 50 mg/kg, 4.00 h; read-out: MES, animals protected/tested (converted)
row,Compound,responders at 50 mg/kg [%]
1,COC(=O)C1C(=O)C=C(Nc2ccc(F)cc2)CC1C (centres unmarked) [Compound 112],100

# Same assay, conditions: oral, 50 mg/kg, 0.25 h
row,Compound,"MES, animals protected/tested"
1,O=C1C=C(NCc2ccccc2)CCC1 [Compound 153],0/4

# Same assay, conditions: oral, 50 mg/kg, 0.50 h
row,Compound,"MES, animals protected/tested"
1,O=C1C=C(NCc2ccccc2)CCC1 [Compound 153],2/4

# Same assay, conditions: oral, 50 mg/kg, 1.00 h
row,Compound,"MES, animals protected/tested"
1,O=C1C=C(NCc2ccccc2)CCC1 [Compound 153],3/4

# Same assay, conditions: oral, 50 mg/kg, 2.00 h
row,Compound,"MES, animals protected/tested"
1,O=C1C=C(NCc2ccccc2)CCC1 [Compound 153],3/4

# Same assay, conditions: oral, 50 mg/kg, 4.00 h
row,Compound,"MES, animals protected/tested"
1,O=C1C=C(NCc2ccccc2)CCC1 [Compound 153],1/4

# Tested on: Maximal electroshock seizures
# Experiment: MES maximal electroshock seizure test, mice ip
# Assay type: in vivo
# Settings: 100 mg/kg, 30 min
# Protocol: Three tests were performed:
# 1. MES--Electroshock Seizure Test
# as §2
row,Compound,"MES, animals protected/tested"
1,O=C1C=C(NCc2ccccc2)CCC1 [Compound 153],3/3

# Same assay, conditions: 100 mg/kg, 4 h
row,Compound,"MES, animals protected/tested"
1,O=C1C=C(NCc2ccccc2)CCC1 [Compound 153],0/3

# Same assay, conditions: 300 mg/kg, 30 min
row,Compound,"MES, animals protected/tested"
1,O=C1C=C(NCc2ccccc2)CCC1 [Compound 153],1/1

# Same assay, conditions: 300 mg/kg, 4 h
row,Compound,"MES, animals protected/tested"
1,O=C1C=C(NCc2ccccc2)CCC1 [Compound 153],1/1

# Same assay, conditions: Mus musculus, ip, 0.5 h, 30 mg/kg, 30 min; read-out: MES, animals protected/tested
row,Compound,responders at 30 mg/kg [%]
1,COC(=O)C1C(=O)C=C(Nc2ccc(C)cc2)CC1C (centres unmarked) [Compound 28],0

# Same assay, conditions: Mus musculus, ip, 0.5 h, 100 mg/kg, 30 min; read-out: MES, animals protected/tested (converted)
row,Compound,responders at 100 mg/kg [%]
1,COC(=O)C1C(=O)C=C(Nc2ccc(F)cc2)CC1C (centres unmarked) [Compound 112],66.7

# Same assay, conditions: Mus musculus, ip, 0.5 h, 300 mg/kg, 30 min; read-out: MES, animals protected/tested
row,Compound,responders at 300 mg/kg [%]
1,COC(=O)C1C(=O)C=C(Nc2ccc(C)cc2)CC1C (centres unmarked) [Compound 28],100
2,COC(=O)C1C(=O)C=C(Nc2ccc(F)cc2)CC1C (centres unmarked) [Compound 112],100

# Same assay, conditions: Mus musculus, ip, 4 h, 30 mg/kg, 4 h; read-out: MES, animals protected/tested
row,Compound,responders at 30 mg/kg [%]
1,COC(=O)C1C(=O)C=C(Nc2ccc(C)cc2)CC1C (centres unmarked) [Compound 28],0

# Same assay, conditions: Mus musculus, ip, 4 h, 100 mg/kg, 4 h; read-out: MES, animals protected/tested (converted)
row,Compound,responders at 100 mg/kg [%]
1,COC(=O)C1C(=O)C=C(Nc2ccc(F)cc2)CC1C (centres unmarked) [Compound 112],0

# Same assay, conditions: Mus musculus, ip, 4 h, 300 mg/kg, 4 h; read-out: MES, animals protected/tested
row,Compound,responders at 300 mg/kg [%]
1,COC(=O)C1C(=O)C=C(Nc2ccc(C)cc2)CC1C (centres unmarked) [Compound 28],0
2,COC(=O)C1C(=O)C=C(Nc2ccc(F)cc2)CC1C (centres unmarked) [Compound 112],100
